Organism: Rattus norvegicus
Assay: DrugMatrix - Regimen: Daily Repeat
Format: toxicity, organism-based, Sprague-Dawley
Design: regimen Daily Repeat, gender Male, age 6-8 weeks
Details: in vivo, po, route oral GAVAGE, […]; for ABSOLUTE BASOPHIL / ABSOLUTE EOSINOPHIL / ABSOLUTE LYMPHOCYTE / ABSOLUTE MONOCYTE / ABSOLUTE SEGMENTED NEUTROPHIL / BASOPHIL / EOSINOPHIL / ERYTHROCYTE COUNT / HEMATOCRIT / HEMOGLOBIN / LEUKOCYTE COUNT / LYMPHOCYTE / MEAN CORPUSCULAR HEMOGLOBIN / MEAN CORPUSCULAR HEMOGLOBIN CONCENTRATION / MEAN CORPUSCULAR VOLUME / MONOCYTE / NEUTROPHIL / NUCLEATED RED BLOOD CELLS / PLATELET COUNT: tissue Blood; for ALANINE AMINOTRANSFERASE / ALBUMIN / ALKALINE PHOSPHATASE / ASPARTATE AMINOTRANSFERASE / BLOOD UREA NITROGEN / CARBON DIOXIDE / CHLORIDE / CHOLESTEROL / CREATINE PHOSPHOKINASE / CREATININE / GLUCOSE / LACTATE DEHYDROGENASE / LIPASE / PHOSPHORUS / POTASSIUM / SODIUM / TOTAL BILIRUBIN / TOTAL PROTEIN / URIC ACID: tissue Plasma
[1] = 0 mg/kg, 72 h, dose level Control, time 3 day
[2] = 0 mg/kg, 120 h, dose level Control, time 5 day
[3] = 47 mg/kg, 72 h, dose level Low, time 3 day

In the case of CC(=O)Nc1nnc(S(N)(=O)=O)s1 [ACETAZOLAMIDE], the “ABSOLUTE BASOPHIL” value [1] is reported as 0 CELLS/uL, the “ABSOLUTE EOSINOPHIL” value [1] is reported as 41.83 CELLS/uL and the “ABSOLUTE LYMPHOCYTE” value [1] is reported as 8545.5 CELLS/uL. For the same compound, the “ABSOLUTE MONOCYTE” value [1] was 240 CELLS/uL, the “ABSOLUTE SEGMENTED NEUTROPHIL” value [1] was 906 CELLS/uL and the BASOPHIL [1] was 0%. The EOSINOPHIL [1] was 0.33%, the “ERYTHROCYTE COUNT” value [1] was 5.6 x10E6/uL and the HEMATOCRIT [1] was 35.4%. For the same compound, the HEMOGLOBIN [1] was 13.42 G/DL, the “LEUKOCYTE COUNT” value [1] was 9.73 x10E3/uL and the LYMPHOCYTE [1] was 87.83%. For the same compound, the “MEAN CORPUSCULAR HEMOGLOBIN” value [1] was 23.98 pg, the “MEAN CORPUSCULAR HEMOGLOBIN CONCENTRATION” value [1] was 37.92 G/DL and the “MEAN CORPUSCULAR VOLUME” value [1] was 63.3 fL. For the same compound, the MONOCYTE [1] was 2.5%, the NEUTROPHIL [1] was 9.33% and the “NUCLEATED RED BLOOD CELLS” value [1] was 0 /100WBC. For the same compound, the “PLATELET COUNT” value [1] was 1032 x10E3/uL, the “ALANINE AMINOTRANSFERASE” value [1] was 72.83 u/L and the ALBUMIN [1] was 4 G/DL. The “ALKALINE PHOSPHATASE” value [1] was 322.83 u/L, the “ASPARTATE AMINOTRANSFERASE” value [1] was 102.67 u/L and the “BLOOD UREA NITROGEN” value [1] was 12 mg/dL. The “CARBON DIOXIDE” value [1] was 34.33 mmol/L, the CHLORIDE [1] was 97.67 MEQ/L and the CHOLESTEROL [1] was 82.5 mg/dL. For the same compound, the “CREATINE PHOSPHOKINASE” value [1] was 410.33 u/L, the CREATININE [1] was 0.18 mg/dL and the GLUCOSE [1] was 164.5 mg/dL. For the same compound, the “LACTATE DEHYDROGENASE” value [1] was 119.5 u/L, the LIPASE [1] was 11.83 u/L and the PHOSPHORUS [1] was 9.52 mg/dL. For the same compound, the POTASSIUM [1] was 5.56 MEQ/L, the SODIUM [1] was 142.48 MEQ/L and the “TOTAL BILIRUBIN” value [1] was 0.18 mg/dL. For the same compound, the “TOTAL PROTEIN” value [1] was 5.77 G/DL, the “URIC ACID” value [1] was 0.48 mg/dL and the “ABSOLUTE BASOPHIL” value [2] was 0 CELLS/uL. The “ABSOLUTE EOSINOPHIL” value [2] was 0 CELLS/uL, the “ABSOLUTE LYMPHOCYTE” value [2] was 9065 CELLS/uL and the “ABSOLUTE MONOCYTE” value [2] was 341.33 CELLS/uL. For the same compound, the “ABSOLUTE SEGMENTED NEUTROPHIL” value [2] was 527 CELLS/uL, the BASOPHIL [2] was 0% and the EOSINOPHIL [2] was 0%. For the same compound, the “ERYTHROCYTE COUNT” value [2] was 5.25 x10E6/uL, the HEMATOCRIT [2] was 34.08% and the HEMOGLOBIN [2] was 13.5 G/DL. For the same compound, the “LEUKOCYTE COUNT” value [2] was 9.93 x10E3/uL, the LYMPHOCYTE [2] was 91.17% and the “MEAN CORPUSCULAR HEMOGLOBIN” value [2] was 25.7 pg. The “MEAN CORPUSCULAR HEMOGLOBIN CONCENTRATION” value [2] was 39.62 G/DL, the “MEAN CORPUSCULAR VOLUME” value [2] was 64.93 fL and the MONOCYTE [2] was 3.33%. For the same compound, the NEUTROPHIL [2] was 5.5%, the “NUCLEATED RED BLOOD CELLS” value [2] was 0 /100WBC and the “PLATELET COUNT” value [2] was 1077.5 x10E3/uL. The “ALANINE AMINOTRANSFERASE” value [2] was 57.83 u/L, the ALBUMIN [2] was 4.07 G/DL and the “ALKALINE PHOSPHATASE” value [2] was 319.17 u/L. For the same compound, the “ASPARTATE AMINOTRANSFERASE” value [2] was 83.33 u/L, the “BLOOD UREA NITROGEN” value [2] was 13.67 mg/dL and the “CARBON DIOXIDE” value [2] was 30.83 mmol/L. For the same compound, the CHLORIDE [2] was 98.33 MEQ/L, the CHOLESTEROL [2] was 64.83 mg/dL and the “CREATINE PHOSPHOKINASE” value [2] was 263.67 u/L. The CREATININE [2] was 0.2 mg/dL, the GLUCOSE [2] was 182.83 mg/dL and the “LACTATE DEHYDROGENASE” value [2] was 124 u/L. It also gave an LIPASE [2] of 10.5 u/L, a PHOSPHORUS [2] of 10 mg/dL and a POTASSIUM [2] of 5.78 MEQ/L. The SODIUM [2] was 142.48 MEQ/L, the “TOTAL BILIRUBIN” value [2] was 0.2 mg/dL and the “TOTAL PROTEIN” value [2] was 6 G/DL. For the same compound, the “URIC ACID” value [2] was 0.7 mg/dL, the “ABSOLUTE BASOPHIL” value [3] was 0 CELLS/uL and the “ABSOLUTE EOSINOPHIL” value [3] was 0 CELLS/uL. For the same compound, the “ABSOLUTE LYMPHOCYTE” value [3] was 9847 CELLS/uL, the “ABSOLUTE MONOCYTE” value [3] was 251.33 CELLS/uL and the “ABSOLUTE SEGMENTED NEUTROPHIL” value [3] was 935 CELLS/uL. The BASOPHIL [3] was 0%, the EOSINOPHIL [3] was 0% and the “ERYTHROCYTE COUNT” value [3] was 5.11 x10E6/uL. The HEMATOCRIT [3] was 32.2%, the HEMOGLOBIN [3] was 12.47 G/DL and the “LEUKOCYTE COUNT” value [3] was 11.03 x10E3/uL. The LYMPHOCYTE [3] was 88.67%, the “MEAN CORPUSCULAR HEMOGLOBIN” value [3] was 24.43 pg and the “MEAN CORPUSCULAR HEMOGLOBIN CONCENTRATION” value [3] was 38.77 G/DL. For the same compound, the “MEAN CORPUSCULAR VOLUME” value [3] was 63 fL, the MONOCYTE [3] was 2.33% and the NEUTROPHIL [3] was 9%. The “NUCLEATED RED BLOOD CELLS” value [3] was 0 /100WBC, the “PLATELET COUNT” value [3] was 1122.33 x10E3/uL and the “ALANINE AMINOTRANSFERASE” value [3] was 67 u/L. The ALBUMIN [3] was 3.77 G/DL, the “ALKALINE PHOSPHATASE” value [3] was 486.33 u/L and the “ASPARTATE AMINOTRANSFERASE” value [3] was 91.33 u/L. For the same compound, the “BLOOD UREA NITROGEN” value [3] was 11.33 mg/dL, the “CARBON DIOXIDE” value [3] was 31 mmol/L and the CHLORIDE [3] was 99 MEQ/L. The CHOLESTEROL [3] was 74 mg/dL, the “CREATINE PHOSPHOKINASE” value [3] was 250 u/L and the CREATININE [3] was 0.31 mg/dL. For the same compound, the GLUCOSE [3] was 173 mg/dL, the “LACTATE DEHYDROGENASE” value [3] was 140.67 u/L and the LIPASE [3] was 13.33 u/L. The PHOSPHORUS [3] was 10.33 mg/dL, the POTASSIUM [3] was 5.3 MEQ/L and the SODIUM [3] was 144.37 MEQ/L. For the same compound, the “TOTAL BILIRUBIN” value [3] was 0.23 mg/dL, the “TOTAL PROTEIN” value [3] was 5.5 G/DL and the “URIC ACID” value [3] was 0.67 mg/dL.
